Measured values from US8604202B2, “Thienopyridone derivatives as AMP-activated protein kinase (AMPK) activators” (Merck Patent GmbH, priority 2008, dated 2013).

Experiments:
[1] = system: H-2 Kb cells; assay: Glucose uptake in H-2 Kb cells (in vitro cellular test); format: cell-based, mouse; settings: differentiated H-2 Kb muscle cells, 4 hours incubation, 2-deoxy-D-[3H]glucose 10 min; for EC (glucose uptake equal or higher to insulin 170 nM): Mus musculus, read-out: activity: Concentration of compound for a glucose uptake equal or higher to glucose uptake induced by insulin (170 nM)
Description: The following cellular test allows the determination of the effect of AMPK activators such as compounds of formula (I) onto glucose uptake in a muscle cellular model.
H-2 Kb cells derived from heterozygous H-2 Kb tsA58 transgenic mouse were grown in 24-well in plates coated with matrigel and were cultured at 33° C. for 4 days under permissive conditions, as described previously by Fryer et al. (Diabetes 49 (12): 1978, 2000).
For differentiation in muscle, cells were switched to non-permissive culture conditions (37° C. in the absence of interferon-γ). After 3 days, cells were incubated for 4 hours in DMEM 1 g/l glucose culture medium containing different concentrations of the tested molecules. Then glucose uptake was measured by incubating the cells for 10 min with radiolabelled 2-deoxy-D-[1, 2 ^3H] glucose. Glucose uptake was terminated by rapidly washing the plates 2 times with ice-cold NaCl 0.9%. The cells were then solubilized in 0.1N NaOH for 30 min. Radioactivity was determined by liquid scintillation counting.
Activity table III: Concentration of compound (1) for a glucose uptake equal or higher to glucose uptake induced by insulin (170 nM)

[2] = biological target: T1, AMPK protein (recombinant α1β1γ2) (Homo sapiens, UniProt Q13131+Q9Y478); assay: AMPK enzymatic activity (Delfia, AMARA peptide); format: biochemical; settings: compound 30 μM vs AMP 30 μM; 125 μM ATP; 30 min room temperature; ratio 90% or higher = direct activator
T1 construct: made in house; host or cells: E. coli
T1 sequence (Q13131 whole entry): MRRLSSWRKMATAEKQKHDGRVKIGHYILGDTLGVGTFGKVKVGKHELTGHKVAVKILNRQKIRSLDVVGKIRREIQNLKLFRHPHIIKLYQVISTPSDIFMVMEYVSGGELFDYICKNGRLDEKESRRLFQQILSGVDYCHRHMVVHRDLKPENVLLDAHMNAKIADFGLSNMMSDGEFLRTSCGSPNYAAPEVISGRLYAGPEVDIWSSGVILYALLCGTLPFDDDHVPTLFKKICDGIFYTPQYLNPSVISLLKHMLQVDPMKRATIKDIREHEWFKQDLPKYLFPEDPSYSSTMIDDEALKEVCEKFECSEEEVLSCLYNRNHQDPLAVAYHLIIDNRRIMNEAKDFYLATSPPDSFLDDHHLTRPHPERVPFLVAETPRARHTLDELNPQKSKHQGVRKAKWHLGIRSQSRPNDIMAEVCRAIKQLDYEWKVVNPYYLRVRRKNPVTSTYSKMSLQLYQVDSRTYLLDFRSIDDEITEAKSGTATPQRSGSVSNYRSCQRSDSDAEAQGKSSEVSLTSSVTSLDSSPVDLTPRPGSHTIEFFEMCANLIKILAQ
T1 sequence (Q9Y478 whole entry): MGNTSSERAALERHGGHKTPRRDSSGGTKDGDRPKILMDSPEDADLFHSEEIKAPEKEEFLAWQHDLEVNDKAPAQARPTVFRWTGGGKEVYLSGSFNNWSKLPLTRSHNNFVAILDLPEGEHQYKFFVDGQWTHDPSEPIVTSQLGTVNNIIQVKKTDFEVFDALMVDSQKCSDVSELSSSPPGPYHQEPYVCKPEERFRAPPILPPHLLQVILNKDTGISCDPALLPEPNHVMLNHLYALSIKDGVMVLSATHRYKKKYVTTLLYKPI
T1 sequence (Q9UGJ0 whole entry partner): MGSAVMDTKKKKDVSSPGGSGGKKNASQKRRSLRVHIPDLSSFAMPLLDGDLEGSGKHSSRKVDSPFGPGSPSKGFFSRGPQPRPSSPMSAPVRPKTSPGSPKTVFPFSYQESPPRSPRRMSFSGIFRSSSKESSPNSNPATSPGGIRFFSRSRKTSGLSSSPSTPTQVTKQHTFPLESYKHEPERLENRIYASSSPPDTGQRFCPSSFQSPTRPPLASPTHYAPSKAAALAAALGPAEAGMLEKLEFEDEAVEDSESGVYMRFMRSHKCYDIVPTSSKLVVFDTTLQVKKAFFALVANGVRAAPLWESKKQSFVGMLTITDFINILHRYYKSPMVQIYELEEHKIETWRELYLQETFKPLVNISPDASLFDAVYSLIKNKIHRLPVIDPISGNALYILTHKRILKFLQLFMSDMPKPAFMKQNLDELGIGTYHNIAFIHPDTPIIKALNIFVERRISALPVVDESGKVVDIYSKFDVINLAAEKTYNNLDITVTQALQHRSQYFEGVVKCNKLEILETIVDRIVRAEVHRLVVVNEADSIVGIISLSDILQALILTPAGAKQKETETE
Description: The following biological test allows the determination of the efficacy of such compounds of formula (I) onto AMPK protein (recombinant α1β1γ2).
Human recombinant AMPK enzyme was expressed in E. Coli and was reactivated in vitro by LKB1 prior to enzyme activity determination.
AMPK enzyme activities were assayed by using A Delfia technology. AMPK enzyme activities were carried out in microtiter plates (50 mM Hepes buffer, pH 7.4 with 125 μM ATP respectively) in the presence of a synthetic peptide substrate (AMARAASAAALARRR, the “AMARA” peptide) and activators in serial dilutions. Reactions were initiated by the addition of AMPK (50-100 ng). Following mixing, the plates were incubated for 30 min at room temperature. Enzyme activity was assayed by using an anti-phosphoserine antibody to measure the quantity of phosphate incorporated into the AMARAA.
Ratio between the % of control (basal activity) of compound of formula (I) at 30 μM and the % of control (basal activity) of AMP (natural substrate) at 30 μM. Compounds of formula (I) in the table II are considered as direct activator of AMPK if the ratio is 90% or higher.

Structure (SMILES) | activity: Concentration of compound for a glucose uptake equal or higher to glucose uptake induced by insulin (170 nM) [1] | activity: Ratio between the % of control (basal activity) of compound of formula (I) at 30 μM and the % of control (basal activity) of AMP at 30 μM [2] [%] | EC (glucose uptake equal or higher to insulin 170 nM) [1] [µM]
COc1ccccc1-c1ccc(-c2c(Cl)sc3[nH]c(=O)c(-c4ccccc4)c(O)c23)cc1 [Compound 3, 2-chloro-4-hydroxy-3-(2′-methoxybiphenyl-4-yl)-5-phenyl-6,7-dihydro-thieno[2,3-b]pyridin-6-one] | ** (concentration of compound (I) ≦10 microMolar) | 111 | –
O=c1[nH]c2scc(-c3ccc(-c4ccccc4O)cc3)c2c(O)c1-c1ccccc1 [Compound 4, 4-hydroxy-3-(2′-hydroxybiphenyl-4-yl)-5-phenyl-6,7-dihydro-thieno[2,3-b]pyridin-6-one] | – | 126 | > 10
Cc1ccccc1-c1ccc(-c2csc3[nH]c(=O)c(-c4ccccc4)c(O)c23)cc1 [Compound 7, 4-hydroxy-3-(2′-methylbiphenyl-4-yl)-5-phenyl-6,7-dihydro-thieno[2,3-b]pyridin-6-one] | – | 141 | > 10
Cc1ccccc1-c1ccc(-c2csc3[nH]c(=O)c(-c4cccnc4)c(O)c23)cc1 [Compound 35, 4-hydroxy-3-(2′-methylbiphenyl-4-yl)-5-pyridin-3-yl-6,7-dihydro-thieno[2,3-b]pyridin-6-one] | – | 161 | > 10
O=c1[nH]c2scc(-c3ccc(-c4cccc(O)c4)cc3)c2c(O)c1-c1ccccc1 [Compound 9, 4-hydroxy-3-(3′-hydroxybiphenyl-4-yl)-5-phenyl-6,7-dihydro-thieno[2,3-b]pyridin-6-one] | – | 120 | > 10
N#Cc1ccc(-c2c(O)c3c(-c4ccc(-c5ccccc5)cc4)csc3[nH]c2=O)cc1 [Compound 22, 3-biphenyl-4-yl-5-(4-cyanophenyl)-4-hydroxy-6,7-dihydro-thieno[2,3-b]pyridin-6-one] | – | 152 | > 10
Cc1cccc(-c2ccc(-c3csc4[nH]c(=O)c(-c5ccccc5)c(O)c34)cc2)c1 [Compound 11, 4-hydroxy-3-(3′-methylbiphenyl-4-yl)-5-phenyl-6,7-dihydro-thieno[2,3-b]pyridin-6-one] | – | 150 | > 10
CS(=O)(=O)c1ccc(-c2ccc(-c3csc4[nH]c(=O)c(-c5ccccc5)c(O)c34)cc2)cc1 [Compound 20, 4-hydroxy-3-(4′-methylsulfonylbiphenyl-4-yl)-5-phenyl-6,7-dihydro-thieno[2,3-b]pyridin-6-one] | – | 206 | > 10
Cc1cccc(-c2ccc(-c3csc4[nH]c(=O)c(-c5cccnc5)c(O)c34)cc2)c1 [Compound 36, 4-hydroxy-3-(3′-methylbiphenyl-4-yl)-5-pyridin-3-yl-6,7-dihydro-thieno[2,3-b]pyridin-6-one] | – | 156 | > 10
O=c1[nH]c2scc(-c3ccc(-c4ccncc4)cc3)c2c(O)c1-c1ccncc1 [Compound 30, 4-hydroxy-5-pyridin-4-yl-3-(4-pyridin-4-ylphenyl)-6,7-dihydro-thieno[2,3-b]pyridin-6-one] | – | 212 | –
O=c1[nH]c2scc(-c3ccc(-c4ccc(O)cc4)c(O)c3)c2c(O)c1-c1ccccc1 [Compound 51, 4-hydroxy-3-(2,4′-hydroxybiphenyl-4-yl)-5-phenyl-6,7-dihydro-thieno[2,3-b]pyridin-6-one] | – | 384 | –
Cc1ccc(-c2ccc(-c3csc4[nH]c(=O)c(-c5ccccc5)c(O)c34)cc2)cc1 [Compound 14, 4-hydroxy-3-(4′-methylbiphenyl-4-yl)-5-phenyl-6,7-dihydro-thieno[2,3-b]pyridin-6-one] | – | 176 | –
O=c1[nH]c2scc(-c3ccc(-c4cccc(F)c4)cc3)c2c(O)c1-c1ccccc1 [Compound 10, 3-(3′-fluorobiphenyl-4-yl)-4-hydroxy-5-phenyl-6,7-dihydro-thieno[2,3-b]pyridin-6-one] | – | 153 | –
O=c1[nH]c2scc(-c3ccc(-c4ccc(F)cc4O)cc3)c2c(O)c1-c1ccccc1 [Compound 21, 3-(4′-fluoro-2′-hydroxybiphenyl-4-yl)-4-hydroxy-5-phenyl-6,7-dihydro-thieno[2,3-b]pyridin-6-one] | – | 187 | –
COc1cc(-c2csc3[nH]c(=O)c(-c4ccccc4)c(O)c23)ccc1-c1ccccc1 [Compound 45, 4-hydroxy-3-(2-methoxybiphenyl-4-yl)-5-phenyl-6,7-dihydro-thieno[2,3-b]pyridin-6-one] | – | 120 | –
COc1cc(-c2csc3[nH]c(=O)c(-c4ccccc4)c(O)c23)ccc1-c1cccc(CO)c1 [Compound 55, 4-hydroxy-3-(3′-hydroxymethyl-2-methoxybiphenyl-4-yl)-5-phenyl-6,7-dihydro-thieno[2,3-b]pyridin-6-one] | – | 160 | –
COc1cc(-c2csc3[nH]c(=O)c(-c4ccccc4)c(O)c23)ccc1-c1ccc(C(=O)O)cc1 [Compound 52, 4′-(4-hydroxy-6-oxo-5-phenyl-6,7-dihydro-thieno[2,3-b]pyridin-3-yl)-2′-methoxybiphenyl-4-carboxylic acid] | – | 219 | –
O=c1[nH]c2scc(-c3ccc(-c4ccncc4)cc3O)c2c(O)c1-c1ccccc1 [Compound 57, 4-hydroxy-3-[2-hydroxy-4-pyridin-4ylphenyl]-5-phenyl-6,7-dihydro-thieno[2,3-b]pyridin-6-one] | – | 243 | –
O=c1[nH]c2scc(-c3ccc(-c4ccccc4F)cc3)c2c(O)c1-c1cccnc1 [Compound 32, 3-(2′-fluorobiphenyl-4-yl)-4-hydroxy-5-pyridin-3-yl-6,7-dihydro-thieno[2,3-b]pyridin-6-one] | – | 159 | –
O=c1[nH]c2scc(-c3ccc(-c4ccccc4O)cc3)c2c(O)c1-c1cccnc1 [Compound 31, 4-hydroxy-3-(2′-hydroxybiphenyl-4-yl)-5-pyridin-3-yl-6,7-dihydro-thieno[2,3-b]pyridin-6-one] | – | 143 | –
O=C(O)c1ccc(-c2ccc(-c3csc4[nH]c(=O)c(-c5ccccc5)c(O)c34)cc2O)cc1 [Compound 53, 2′-hydroxy-4′-(4-hydroxy-6-oxo-5-phenyl-6,7-dihydro-thieno[2,3-b]pyridin-3-yl)biphenyl-4-carboxylic acid] | – | 376 | –
O=c1[nH]c2scc(-c3ccc(-c4ccc(O)cc4O)cc3)c2c(O)c1-c1ccccc1 [Compound 43, 4-hydroxy-3-(2′,4′-dihydroxybiphenyl-4-yl)-5-phenyl-6,7-dihydro-thieno[2,3-b]pyridin-6-one] | – | 139 | –
